Laboratory results reported in ChEMBL document CHEMBL1201862, “PubChem BioAssay data set” (2004).
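Tested at 5 concentrations; 48 h exposure; 96-well plates; endpoints linearly interpolated, else capped at highest concentration. GI50: concentration for 50% inhibition of growth.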 Calls of active or inactive are those of the source. No stated cut-off is given here; in the data, active = GI50 up to about 1.1 µM and inactive = higher.

What was measured:
Test in all cases: inhibition of tumour cell growth, NCI panel, 48 h
[1] = system: HCT-15
[2] = system: OVCAR-8
[3] = system: HOP-92
[4] = system: SR
[5] = system: SN12C
[6] = system: OVCAR-3
[7] = system: LXFL 529
[8] = system: MOLT-4
[9] = system: HCC 2998
[10] = system: SK-MEL-28
[11] = system: HL-60
[12] = system: LOX IMVI
[13] = system: A498
[14] = system: NCI-H226
[15] = system: SNB-19
[16] = system: OVCAR-5
[17] = system: UACC-257
[18] = system: SNB-78
[19] = system: SF-295
[20] = system: SNB-75
[21] = system: RXF 393
[22] = system: CCRF-CEM
[23] = system: M19-MEL
[24] = system: IGROV-1
[25] = system: K562
[26] = system: NCI-H23
[27] = system: SK-MEL-5
[28] = system: 786-0
[29] = system: UO-31
[30] = system: SW-620
[31] = system: CAKI-1
[32] = system: SF-539
[33] = system: HT-29
[34] = system: HOP-18
[35] = system: Malme-3M
[36] = system: COLO 205
[37] = system: RXF 631
[38] = system: TK-10
[39] = system: OVCAR-4
[40] = system: DMS-114
[41] = system: ACHN
[42] = system: A549
[43] = system: M14
[44] = system: NCI-H460
[45] = system: HOP-62
[46] = system: HCT-116
[47] = system: SF-268
[48] = system: U-251
[49] = system: NCI-H522
[50] = system: DMS-273
[51] = system: RPMI-8226
[52] = system: UACC-62
[53] = system: KM12
[54] = system: SK-MEL-2
[55] = system: SK-OV-3
[56] = system: EKVX
[57] = system: XF498

Q: How did the GI50 [1] turn out when `CC(=O)N1[C@H](C(=O)O)CS[C@H]1c1ccc(F)cc1` was run?
A: Its GI50 is greater than 100 µM.

Q: What about the GI50 [2] of the same molecule?
A: Its GI50 is > 100 µM (inactive).

Q: And the GI50 [3]?
A: Its GI50 is > 100 µM (inactive).

Q: What about the GI50 [4] of the same molecule?
A: The GI50 was > 100 µM (inactive).

Q: What about the GI50 [5] of the same molecule?
A: The GI50 was > 100 µM (inactive).

Q: What about the GI50 [6] of the same molecule?
A: The GI50 was > 100 µM (inactive).

Q: And the GI50 [7]?
A: The GI50 was > 100 µM (inactive).

Q: And the GI50 [8]?
A: The GI50 was > 100 µM (inactive).

Q: And the GI50 [9]?
A: The GI50 was > 100 µM (inactive).

Q: And the GI50 [10]?
A: Its GI50 is > 100 µM (inactive).

Q: What about the GI50 [11] of the same molecule?
A: Its GI50 is > 100 µM (inactive).

Q: What about the GI50 [12] of the same molecule?
A: The GI50 was > 100 µM (inactive).

Q: And the GI50 [13]?
A: The GI50 was > 100 µM (inactive).

Q: What about the GI50 [14] of the same molecule?
A: The GI50 was > 100 µM (inactive).

Q: And the GI50 [15]?
A: Its GI50 is > 100 µM (inactive).

Q: And the GI50 [16]?
A: The GI50 was > 100 µM (inactive).

Q: What about the GI50 [17] of the same molecule?
A: Its GI50 is > 100 µM (inactive).

Q: And the GI50 [18]?
A: The GI50 was > 100 µM (inactive).

Q: What about the GI50 [19] of the same molecule?
A: The GI50 was > 100 µM (inactive).

Q: What about the GI50 [20] of the same molecule?
A: Its GI50 is > 100 µM (inactive).

Q: And the GI50 [21]?
A: Its GI50 is > 100 µM (inactive).

Q: And the GI50 [22]?
A: Its GI50 is > 100 µM (inactive).

Q: What about the GI50 [23] of the same molecule?
A: Its GI50 is > 100 µM (inactive).

Q: And the GI50 [24]?
A: The GI50 was > 100 µM (inactive).

Q: What about the GI50 [25] of the same molecule?
A: The GI50 was > 100 µM (inactive).

Q: And the GI50 [26]?
A: Its GI50 is > 100 µM (inactive).

Q: What about the GI50 [27] of the same molecule?
A: Its GI50 is > 100 µM (inactive).

Q: What about the GI50 [28] of the same molecule?
A: The GI50 was > 100 µM (inactive).

Q: And the GI50 [29]?
A: The GI50 was > 100 µM (inactive).

Q: And the GI50 [30]?
A: The GI50 was > 100 µM (inactive).

Q: And the GI50 [31]?
A: The GI50 was > 100 µM (inactive).

Q: What about the GI50 [32] of the same molecule?
A: Its GI50 is > 100 µM (inactive).

Q: What about the GI50 [33] of the same molecule?
A: The GI50 was > 100 µM (inactive).

Q: And the GI50 [34]?
A: Its GI50 is > 100 µM (inactive).

Q: What about the GI50 [35] of the same molecule?
A: Its GI50 is > 100 µM (inactive).

Q: What about the GI50 [36] of the same molecule?
A: Its GI50 is > 100 µM (inactive).

Q: What about the GI50 [37] of the same molecule?
A: The GI50 was > 100 µM (inactive).

Q: And the GI50 [38]?
A: The GI50 was > 100 µM (inactive).

Q: And the GI50 [39]?
A: The GI50 was > 100 µM (inactive).

Q: What about the GI50 [40] of the same molecule?
A: Its GI50 is > 100 µM (inactive).

Q: And the GI50 [41]?
A: The GI50 was > 100 µM (inactive).

Q: And the GI50 [42]?
A: Its GI50 is > 100 µM (inactive).

Q: And the GI50 [43]?
A: Its GI50 is > 100 µM (inactive).

Q: And the GI50 [44]?
A: The GI50 was > 100 µM (inactive).

Q: And the GI50 [45]?
A: The GI50 was > 100 µM (inactive).

Q: And the GI50 [46]?
A: Its GI50 is 29.1 µM (inactive).

Q: And the GI50 [47]?
A: Its GI50 is > 100 µM (inactive).

Q: With `O=C(O)C1C2CC3CC2CC31` (stereo not drawn) as the molecule, how does the GI50 [1] read?
A: The GI50 was greater than 100 µM.

Q: What about the GI50 [2] of the same molecule?
A: Its GI50 is > 100 µM (inactive).

Q: And the GI50 [3]?
A: The GI50 was > 100 µM (inactive).

Q: And the GI50 [48]?
A: The GI50 was > 100 µM (inactive).

Q: What about the GI50 [49] of the same molecule?
A: The GI50 was > 100 µM (inactive).

Q: And the GI50 [5]?
A: The GI50 was > 100 µM (inactive).

Q: And the GI50 [6]?
A: Its GI50 is > 100 µM (inactive).

Q: And the GI50 [50]?
A: The GI50 was > 100 µM (inactive).

Q: And the GI50 [7]?
A: Its GI50 is > 100 µM (inactive).

Q: And the GI50 [8]?
A: Its GI50 is > 100 µM (inactive).

Q: And the GI50 [51]?
A: The GI50 was > 100 µM (inactive).

Q: And the GI50 [10]?
A: The GI50 was > 100 µM (inactive).

Q: What about the GI50 [11] of the same molecule?
A: The GI50 was > 100 µM (inactive).

Q: What about the GI50 [12] of the same molecule?
A: The GI50 was > 100 µM (inactive).

Q: And the GI50 [13]?
A: Its GI50 is > 100 µM (inactive).

Q: What about the GI50 [15] of the same molecule?
A: Its GI50 is > 100 µM (inactive).

Q: And the GI50 [16]?
A: The GI50 was > 100 µM (inactive).

Q: And the GI50 [17]?
A: Its GI50 is > 100 µM (inactive).

Q: And the GI50 [18]?
A: Its GI50 is > 100 µM (inactive).

Q: What about the GI50 [19] of the same molecule?
A: The GI50 was > 100 µM (inactive).

Q: And the GI50 [20]?
A: The GI50 was > 100 µM (inactive).

Q: And the GI50 [21]?
A: Its GI50 is > 100 µM (inactive).

Q: What about the GI50 [22] of the same molecule?
A: The GI50 was > 100 µM (inactive).

Q: What about the GI50 [24] of the same molecule?
A: Its GI50 is > 100 µM (inactive).

Q: And the GI50 [25]?
A: Its GI50 is > 100 µM (inactive).

Q: And the GI50 [26]?
A: The GI50 was > 100 µM (inactive).

Q: What about the GI50 [27] of the same molecule?
A: The GI50 was > 100 µM (inactive).

Q: And the GI50 [28]?
A: Its GI50 is > 100 µM (inactive).

Q: And the GI50 [29]?
A: Its GI50 is > 100 µM (inactive).

Q: And the GI50 [30]?
A: The GI50 was > 100 µM (inactive).

Q: What about the GI50 [31] of the same molecule?
A: The GI50 was > 100 µM (inactive).

Q: And the GI50 [52]?
A: Its GI50 is > 100 µM (inactive).

Q: And the GI50 [53]?
A: Its GI50 is > 100 µM (inactive).

Q: What about the GI50 [32] of the same molecule?
A: The GI50 was > 100 µM (inactive).

Q: And the GI50 [54]?
A: The GI50 was > 100 µM (inactive).

Q: What about the GI50 [35] of the same molecule?
A: The GI50 was > 100 µM (inactive).

Q: And the GI50 [36]?
A: Its GI50 is > 100 µM (inactive).

Q: What about the GI50 [37] of the same molecule?
A: Its GI50 is > 100 µM (inactive).

Q: What about the GI50 [55] of the same molecule?
A: Its GI50 is > 100 µM (inactive).

Q: What about the GI50 [38] of the same molecule?
A: Its GI50 is > 100 µM (inactive).

Q: And the GI50 [39]?
A: Its GI50 is > 100 µM (inactive).

Q: What about the GI50 [40] of the same molecule?
A: The GI50 was > 100 µM (inactive).

Q: What about the GI50 [41] of the same molecule?
A: Its GI50 is > 100 µM (inactive).

Q: And the GI50 [56]?
A: The GI50 was > 100 µM (inactive).

Q: And the GI50 [57]?
A: Its GI50 is > 100 µM (inactive).

Q: And the GI50 [42]?
A: The GI50 was > 100 µM (inactive).

Q: And the GI50 [43]?
A: Its GI50 is > 100 µM (inactive).

Q: What about the GI50 [44] of the same molecule?
A: The GI50 was > 100 µM (inactive).

Q: What about the GI50 [45] of the same molecule?
A: Its GI50 is > 100 µM (inactive).

Q: And the GI50 [46]?
A: Its GI50 is > 100 µM (inactive).

Q: What about the GI50 [47] of the same molecule?
A: Its GI50 is > 100 µM (inactive).
